Laboratory results: patent publication US20180086749A1, “INHIBITORS OF VIRUSES” (priority 2015, published 2018)
Values joined by “and” are separate entries in the source; they are usually repeats but may differ in a detail not shown here. Equal values may be shown once. Read-outs that look alike come from different tables or passages of the source.

Experiments:
VEEV (TC83 strain) = assay: microbe, parasite or virus in culture; type: cell-based, Venezuelan equine encephalitis virus
CHIKV S27 = type: cell-based, Chikungunya virus
VEEV TC-83 = type: cell-based, Venezuelan equine encephalitis virus
[1] = test system: VEEV TrD (Trinidad donkey); type: cell-based, Venezuelan equine encephalitis virus
RSV Long = type: cell-based, Respiratory syncytial virus
LCMV-ARM = type: cell-based, Lymphocytic Choriomeningitis Virus
HSV-2 = type: cell-based, Herpes simplex virus type-2
JEV [2] = type: cell-based, Japanese Encephalitis virus
YFV 17D = type: cell-based, Yellow Fever virus
WNV/NY99 [3] = type: cell-based, West Nile virus
VEEV TrD = assay: microbe, parasite or virus in culture; type: cell-based; conditions: Venezuelan equine encephalitis virus
pVSV-luc = assay: microbe, parasite or virus in culture; type: cell-based, Vesicular stomatitis virus; conditions: for EC50: Vesicular stomatitis virus
WEEV = assay: cells; type: cell-based, West equine encephalitis virus California
JEV [4] = assay: Dose-response EC50, JEV; type: cell-based; conditions: Japanese encephalitis virus
WNV/NY99 [5] = assay: Dose-response EC50, WNV; type: cell-based; conditions: West Nile virus
ZIKV/PRVABC59 = assay: Dose-response EC50, ZIKV/PRVABC59; type: cell-based; conditions: Zika virus, Vero 76, Vero76, MOI 0.05
ZIKV/MR766 = assay: Dose-response EC50, ZIKV/MR766; type: cell-based; conditions: Zika virus, Vero 76, Vero76, MOI 0.05
Ebola virus-GFP = assay: microbe, parasite or virus in culture; type: cell-based, Zaire ebolavirus
HIV-1 = HIV-1 viral infectivity assay (TZM-bl); type: cell-based; design: reduction in viral infectivity: dose or concentration left out as unconfirmed
[6] = test system: cellular metabolites of HEK 293T cells; assay: Metabolomics analysis of cellular metabolites; type: cell-based, human
[7] = test system: innate immune response genes in HEK 293T cells; type: cell-based, human
[8] = test system: HEK-Blue IFN-α/β reporter cells; assay: HEK-Blue IFN-α/β cell reporter assay (SEAP); type: cell-based, human
SARS-CoV = type: cell-based, Severe acute respiratory syndrome coronavirus
alphaviruses = type: cell-based; conditions: 5 μM
in vitro = conditions: African green monkey, CC50 μM (Vero76)
HEK 293T cells = assay: ApoTox-Glo Triplex viability, cytotoxicity, apoptosis assay; conditions: four days exposure
[9] = ML416-treated / DMSO-treated, 18 hours
[10] = ML416 / DMSO, metabolite not confirmed by standard

## CN(C(=O)Cc1sccc1F)c1nc2c(s1)CCCC2 [ML416, 2-(3-fluorothiophen-2-yl)-N-methyl-N-(4,5,6,7-tetrahydro-1,3-benzothiazol-2-yl)acetamide]
VEEV (TC83 strain); Venezuelan equine encephalitis virus
  EC50: 350 nM
VEEV (TC83 strain); read-out: VEEV (TC83 strain) CPE Assay Potency mean EC50
  EC50: 1000 nM and 900 nM
CHIKV S27
  reduction of CHIKV viral titer in vitro: 4 log
CHIKV S27; 5 μM
  Log titer inhibition at 5 μM: −4.024 Log
VEEV TC-83
  Log titer inhibition at 5 μM: −2.536 ± 0.018 Log
[1]
  Log titer inhibition at 5 μM: −4.768 Log
RSV Long
  Log titer inhibition at 5 μM: −2.27 ± 0.1 Log
RSV Long; 5 μM
  Log titer reduction: ~2 Log
LCMV-ARM
  Log titer inhibition at 5 μM: −3.466 Log
LCMV-ARM; 5 μM
  Log reduction in progeny virus titers: greater than 3 Log
HSV-2
  Log titer inhibition at 5 μM: 0.01 ± 0.43 Log
JEV [2]
  Log titer inhibition at 5 μM: −1.3 ± −0.43 Log
JEV [2]; 5 μM
  Log reduction: ~1.3 Log
YFV 17D
  Log titer inhibition at 5 μM: −2.32 Log
YFV 17D; 5 μM
  Log titer reduction: ~2 Log
WNV/NY99 [3]
  Log titer inhibition at 5 μM: −2.05 ± −0.09 Log
WNV/NY99 [3]; 5 μM
  Log titer reduction: ~2 Log
VEEV TrD
  EC50: 460 nM
pVSV-luc
  antiviral effect: moderate effect
  EC50: 0.19 µM
pVSV-luc; BHK, read-out: EC50 pVSV-Gp
  EC50: 8.26 µM
pVSV-luc; HEK-293T, read-out: EC50 pVSV-Gp
  EC50: 0.17 µM
pVSV-luc; N2a, read-out: EC50 pVSV-Gp
  EC50: > 50 µM
pVSV-luc; NIH3T3, read-out: EC50 pVSV-Gp
  EC50: > 50 µM
pVSV-luc; in Mus musculus
  EC50: > 50 µM
pVSV-luc; read-out: EC50 pVSV-Gp
  EC50: 3.82 µM
pVSV-luc; read-out: EC50 values range
  EC50: 0.15 to 0.68 µM
WEEV
  EC50: 960 nM
JEV [4]
  EC50: 1900 nM
JEV [4]; Vero 76, JEV, Vero76, MOI 0.05, Table 3, read-out: EC50
  EC50: 1900 nM
WNV/NY99 [5]; Table 2
  EC50: 2400 nM
WNV/NY99 [5]; Vero 76, Vero76, MOI 0.01, Table 3
  EC50: 2400 nM
ZIKV/PRVABC59
  EC50: 2200 nM
ZIKV/MR766
  EC50: 1100 nM
Ebola virus-GFP
  EC50: 260 nM
Ebola virus-GFP; Zaire ebolavirus, HeLa
  EC50: 300 nM
HIV-1; Human immunodeficiency virus 1, TZM-bl, read-out: inhibition at 10 μM
  inhibition at 10 µM: 94%
HIV-1; TZM-bl reporter system, luciferase
  reduction in viral infectivity: 94%
[6]; [9]
  Fold Change: 3-((carboxymethyl)(methyl)amino)-3-oxopropanoic acid: 0.46 fold
  Fold Change: Citirc acid: 0.62 fold
  Fold Change: D-(−)-Lactic acid: 0.76 fold
  Fold Change: DL-Ornithine: 0.53 fold
  Fold Change: DL-Phenylalanine: 0.71 fold
  Fold Change: Fumaric Acid: 11 fold and 11.00 fold
  Fold Change: Glycine: 2.80 fold
  Fold Change: L-Asparagine: 0.41 fold
  Fold Change: L-Aspartic acid: 2.07 fold
  Fold Change: L-Glutamic acid: 0.09 fold
  Fold Change: L-Isoleucine: 0.45 fold
  Fold Change: L-Lysine: 2.76 fold
  Fold Change: L-Proline: 0.28 fold
  Fold Change: L-Threonine: 0.54 fold
  Fold Change: L-Tyrosine: 0.86 fold
  Fold Change: Lauric acid; Dodecanoic acid: 0.73 fold
  Fold Change: Oxalic acid: 0.66 fold
  Fold Change: Phenylalanine: 0.40 fold
  Fold Change: Pyruvic acid: 1.60 fold
  Fold Change: Tryptophan: 1.23 fold
[6]; ML416-treated groups
  presence of free uridine: not detected
[6]; [10]
  Fold Change: 1-phenylpropan-2-amine; Amphetamine; Fenopromin*: 0.80 fold
  Fold Change: 2-(Dimethylamino)ethyl neopentyl carbonate*: 1.49 fold
  Fold Change: 3,3-diethoxy-2-hydroxypropyl dihydrogen phosphate*: 0.58 fold
  Fold Change: 3-Glycerophosphate*: 1.71 fold
  Fold Change: 3-hydroxy-2-methylpropanoic acid; 3-Hydroxyisobutyric acid*: 0.70 fold
  Fold Change: Adenine*: 1.37 fold
  Fold Change: Dihydromuconic acid; trans-3-Hexenedioic acid*: 0.23 fold
  Fold Change: Ethylcholine mustard*: 0.49 fold
  Fold Change: L-Norvaline*: 0.52 fold
  Fold Change: Niacinamine*: 0.74 fold
  Fold Change: O-phosphorylethanolamine; 2-aminoethyl dihydrogen phosphate*: 1.35 fold
  Fold Change: Ribitol*: 0.66 fold
  Fold Change: Scyllo-Inositol*: 1.23 fold
  Fold Change: meso-Erythritol; Erythritol*: 0.69 fold
[6]; ML416 vs mock-treated
  presence of dihydroorotic acid (DHO): found only in ML416-treated groups
  presence of orotic acid: found only in ML416-treated groups
[7]
  IFIH1 expression: repressed
  IFIT1 gene upregulation: more than 10 fold
  IFNB1 expression: repressed
  IRF7 gene upregulation: more than 10 fold
  MYD88 expression: did not show any changes
  OAS1 expression: did not show any changes
  OAS2 gene upregulation: more than 10 fold
  RIG-I gene upregulation: more than 10 fold
[8]; HEK 293T supernatant on HEK-Blue IFN-α/β cells
  IFN α/β in cell culture supernatant: no measurable quantity of IFNs was detected
[8]; HEK-Blue IFN-α/β cells treated directly, FIG. 6
  SEAP activity: did not induce SEAP activity
SARS-CoV
  antiviral activity (blank spaces of Table 2): initial results have shown activity
alphaviruses
  Log reduction in progeny virus titers: greater than 4 Log
Vero 76 cells
  CC50: > 50 µM
  Selective Index 50 (SI50): 106.9
Vero 76 cells; African green monkey
  concentration up to which no apparent cytotoxicity: up to 12.5 μM
  cytotoxicity: > 40 µM
  cytotoxicity in Vero 76 cells: > 50 µM
In vitro
  CC50: > 50 µM
HEK 293T cells
  concentration up to which no significant cytotoxicity and apoptosis: up to 25 μM
